Key:
rat jejunal mucosa = test: LPS mucosal-to-serosal transport in Ussing-chambered rat jejunal mucosa (LAL test); format: cell-based; conditions: for OA/TCA-augmented LPS transport (t=30-45 min): mucosal LPS 10 μg/ml + OA 30 mM/TCA 0.1 mM; for OA/TCA-augmented LPS transport (t=30-45 min) / LPS transport at t=15 min (LPS alone, absence of OA/TCA): drug added 10 or 15 min before LPS; for LPS transport at t=15 min (LPS alone, absence of OA/TCA): mucosal LPS 10 μg/ml
Protocol: Short-circuit current measurements in Ussing chambered preparations. Mucosa-submucosa preparations were prepared from the mid-jejunum (˜20 cm from the pyloric ring) by muscle stripping using fine forceps under a stereomicroscope. Two or four preparations were prepared from one animal. The tissue was then mounted between two hemi-sliders with an aperture=0.3 cm^2 (Physiologic Instruments, San Diego, Calif., USA). Chambers were bathed with serosal and luminal bathing solutions in a volume of 4 ml each, maintained at 37° C. using a water recirculating heating system. The serosal Krebs-Ringer solution contained (in mM) NaCl, 117; KCl, 4.7; MgCl2, 1.2; NaH2PO4, 1.2; CaCl2, 2.5; NaHCO3, 25; glucose, 11; and bubbled with 95% O2-5% CO2 to maintain pH at 7.4. The luminal bathing solution contained NaCl, 136; KCl, 2.6; CaCl2, 1.8; HEPES, 10 (pH 7.0); mannitol, 11; and bubbled with 100% O2. The tissues were short-circuited by a voltage clamp (VCC MC6, Physiologic Instruments) at zero potential difference with automatic compensation for solution resistance. Short-circuit current (Isc) was continuously measured with tissue conductance (Gt) and TEER (Ω·cm^2) determined every 20 sec in order to assess the tissue integrity during the LPS and lipid exposure. The current was recorded by the DataQ system (Physiologic Instruments). IND (10 μM) was added to the serosal bath to eliminate the effects of endogenous prostaglandin production. The tissues were stabilized for ˜30 min before the addition of test chemicals.
LPS movement from mucosal to serosal solution. LPS movement m-to-s was assessed using a LAL test kit (Pierce Chromogenic Endotoxin Quant Kit, Pierce Biotechnology, Rockford, Ill., USA), which eliminates non-specific detection of (1,3)-β-D-glucan, then reduces false-positive LPS measurements. After tissue stabilization, time was set as t=0 min. Fifty μl of the serosal solution was collected at 0 min as a blank sample, followed by collection at t=15, 30 and 45 min. At t=0 min, LPS (10 μg/ml) was added into the mucosal solution. Vehicle (PBS alone), TCA alone (0.1 mM) in PBS or OA (3, 10, 30 mM) with TCA (0.1 mM) in PBS was added into the mucosal solution at t=15 min. The tissues were pretreated with drugs 10 or 15 min before the addition of LPS (i.e. at t=−10 or −15 min). The collected serosal solutions were kept at −80° C. until use. LPS content in the serosal solutions was measured with the LAL test according to the manufacturer's protocol. The value of background at t=0 min was subtracted and the serosal LPS appearance was expressed as Δ[LPS] (EU/ml). In some experiments, FITC-LPS (10 μg/ml) was used instead of LPS. Serosal FITC-LPS content was assessed by FITC fluorescence intensity measurement using a multi-mode microplate reader (Synergy-2, BioTek Instruments, Inc., Winooski, Vt., USA). To detect macromolecule m-to-s movement across the mucosa, FD4 (0.1 mM) was applied into the mucosal bath and serosal FD4 content was assessed by FITC fluorescence intensity measurement.
Ussing chamber study: drug treatment. The following drugs were pretreated by addition to the mucosal (m) or serosal (s) bath 10 or 15 min before LPS addition to the mucosal bath: the lipid raft inhibitor MβCD (1 mM, m), the CD36 inhibitor SSO (0.1 mM, m), the muscarinic agonist CCh (10 μM, s), a competitive substrate for IAP (IAP inhibitor) GP (10 mM, m) (47), GLP-2 (100 nM, s), the dipeptidyl peptidase-4 (DPP4) inhibitor NVP-728 (10 μM, s) (36), the stable GLP-2 analog TDG (100 nM) (13), the insulin-like growth factor-1 (IGF-1) receptor tyrosine kinase inhibitor NVP-AEW-541 (10 μM, s) (22), the epidermal growth factor (EGF) tyrosine kinase inhibitor PD153035 (1 μM, s) (6), the nitric oxide (NO) synthase (NOS) inhibitor L-NAME (0.1 mM, s) and the selective VPAC1 antagonist PG97-269 (1 μM) (26).

rat small intestine = test: LPS-induced small intestinal FD4 paracellular permeability in vivo (PV and arterial FD4); conditions: for TDG-induced inhibitory effect on PV FD4 levels: LPS 6 hr + TDG 6 hr
Protocol: LPS treatment. Animals were treated with LPS (5 mg/kg, ip) once at 9 am. For the acute experiments, the animals were fasted overnight and were treated with LPS 1, 3, or 6 hr before the anesthesia for small intestinal perfusion of FD4 as described herein. For the 24-hr experiments, the animals fed ad libitum were treated with LPS 24 hr before anesthesia induction used for the perfusion study. As a control, saline was injected ip at the corresponding time before the experiments. The animal groups were expressed as control, LPS 1 hr, LPS 3 hr, LPS 6 hr, and LPS 24 hr.
Small intestinal perfusion. The small intestinal perfusion from the duodenum, and portal vein (PV) cannulation were prepared by the modified methods. Under isoflurane anesthesia (2%), the animal was placed […] on a recirculating heating block system (Summit Medical Systems, Bend, Oreg., USA) in order to maintain body temperature at 36-37° C. Prewarmed saline was infused via the right femoral vein at 1.08 ml/h using a Harvard infusion pump (Harvard Apparatus, Holliston, Mass., USA). The abdomen was incised, and the PV was cannulated with a polyethylene (PE)-50 tube attached with 23G needle and fixed by methylacrylate adhesive at the insertion site. The tube was filled with heparinized saline enabling repeated blood sampling. Samples of 0.2 ml PV blood were collected every 15 min, followed by flushing with 0.2 ml heparinized saline. A polyethylene tube (diameter 5 mm) filled with PBS was inserted through the forestomach and tied at 0.5 cm caudal from the pyloric ring. After bolus perfusion of 2-ml phosphate buffer saline (PBS, 10 mM, pH 7.4) into the duodenum from the tube, followed by stabilization for ˜30 min, the time was set as t=0. FD4 (0.1 mM) in 10-ml PBS was slowly perfused at t=0 min for 30 sec. Blood samples were collected into a 0.5-ml tubes containing 1-μl each of EDTA (0.5 M) and the dipeptidyl peptidase-4 (DPP4) inhibitor NVP-728 (1 mM), and immediately centrifuged at 5,000× g for 5 min, after which the plasma was stored on ice or at −80 ° C. until use. At 90 min, after collection of PV samples, arterial blood was taken from abdominal aorta, followed by euthanasia by thoracotomy.
Appearance of FD4 into the PV and arterial plasma was assessed by fluorescence intensity measurement using a multi-mode microplate reader (Synergy-2, BioTek Instruments, Inc., Winooski, VT, USA). Fluorescence intensity in t=0 sample as background was subtracted from the fluorescence values measured in other time point samples. FD4 content was calculated according to the standard curve generated each time of measurement.
Drug treatment for the intestinal perfusion study. The following drugs were administered at the time after LPS treatment: the GLP2R partial agonist/antagonist GLP-2(3-33) (1 mg/kg; 280 nmol/kg, ip) was given immediately after LPS treatment (0 hr after LPS treatment); GLP-2 (380 μg/kg; 100 nmol/kg, ip) was given 6 hr after LPS treatment; a stable GLP-2 analog TDG (50 μg/kg; 13.3 nmol/kg) was ip injected 0, 3, 6, or 12 hr after LPS treatment or iv injected at t=0 min just before the perfusion of FD4 solution (6 or 24 hr after LPS treatment). In acute experiments, TDG was iv injected at t=0 min (6 hr after LPS treatment) with or without the pretreatment of the selective IGF1 receptor (IGF1R) tyrosine kinase inhibitor AEW541 (0.1 mg/kg, iv), the selective EGF receptor (EGFR) tyrosine kinase inhibitor PD153035 (10 μg/kg, iv) or PG97-269 (1 mg/kg, iv) at t=−10 min, or the co-perfusion of L-NAME (0.1 mM, pf) with FD4 solution.

[1] = pig, in vivo; cited from earlier work
[2] = inhibitor iv at t=-10 min or co-perfused
[3] = inhibitor serosal before GLP-2 + NVP-728
[4] = LPS 6 hr model, GLP-2(3-33) 1 mg/kg ip immediately after LPS
[5] = LPS 24 hr model, GLP-2 380 μg/kg ip 6 hr after LPS

Compound: C[N+](C)(C)CCOC(N)=O [CCh, carbachol]
- OA/TCA-augmented LPS transport (t=30-45 min) (rat jejunal mucosa): further increased
- LPS transport at t=15 min (LPS alone, absence of OA/TCA) (rat jejunal mucosa): increased

Compound: O=P(O)(O)OCC(O)CO (stereo not drawn) [GP, glycerol phosphate]
- OA/TCA-augmented LPS transport (t=30-45 min) (rat jejunal mucosa): further increased
- LPS transport at t=15 min (LPS alone, absence of OA/TCA) (rat jejunal mucosa): no effect

Compound: N#Cc1ccc(NCCNCC(=O)N2CCC[C@H]2C#N)nc1 [NVP-728]
- OA/TCA-augmented LPS transport (t=30-45 min) (rat jejunal mucosa): no effect
- LPS transport at t=15 min (LPS alone, absence of OA/TCA) (rat jejunal mucosa): no effect

Compound: Nc1ncnc2c1c(-c1cccc(OCc3ccccc3)c1)cn2[C@H]1C[C@@H](CN2CCC2)C1 [NVP-AEW-541]
- TDG-induced inhibitory effect on PV FD4 levels (rat small intestine; [2]): no effect

Compound: COc1cc2ncnc(Nc3cccc(Br)c3)c2cc1OC [PD153035]
- TDG-induced inhibitory effect on PV FD4 levels (rat small intestine; [2]): no effect
- Arterial FD4 levels in LPS 6 hr + TDG 6 hr rats (rat small intestine; t=90 min, inhibitor iv at t=-10 min or co-perfused): not affected
- amount of LPS transport after addition of OA/TCA, in presence of GLP-2 + NVP-728 (rat jejunal mucosa; [3]): further increased
- amount of LPS transport at t=15 min (prior to OA/TCA exposure), in presence of GLP-2 + NVP-728 (rat jejunal mucosa; [3]): increased

Compound: GLP-2(3-33): GLP-2 receptor partial agonist/antagonist; truncated GLP-2 peptide missing the first 2 amino acids (DGSFSDEMNTILDNLATRDFINWLIQTKITD; Glucagon-like peptide 2; UniProt P06883 148-178, looked up, fragment)
- PV FD4 levels at t=60-90 min (rat small intestine; [4]): further increased
- arterial FD4 levels at t=90 min (rat small intestine; [4]): further increased
- OA/TCA-augmented LPS transport (t=30-45 min) (rat jejunal mucosa): no effect
- LPS transport at t=15 min (LPS alone, absence of OA/TCA) (rat jejunal mucosa): no effect

Compound: HADGSFSDEMNTILDNLATRDFINWLIQTKITD [GLP-2, Glucagon-like peptide-2; rat GLP-2 from Tocris used in the experiments]
- t1/2 of exogenous GLP-2 [1]: ~7 min
- PV FD4 levels (rat small intestine; [5]): reduced
- arterial FD4 levels (rat small intestine; [5]): reduced
- LPS transport during OA/TCA exposure period, GLP-2 with NVP-728 (rat jejunal mucosa; GLP-2 100 nM + DPP4 inhibitor NVP-728 10 μM, serosal): inhibited
- OA/TCA-augmented LPS transport (t=30-45 min) (rat jejunal mucosa): no effect
- LPS transport at t=15 min (LPS alone, absence of OA/TCA) (rat jejunal mucosa): no effect
